Test system: Mus musculus
Assay: Toxicity in ip dosed mouse
Format: organism-based
Details: in vivo

C=C1CCCC2=NCC(C)C(C)CC23CCC(C2C=C(C)C(=O)O2)=C(C)C3/C=C(\C)C(O)CC2CCC3(CCC4(OC(CCC4O)C1)O3)O2 (stereo unspecified)
MLD: 0.03 mg/kg

— ChEMBL document CHEMBL1142595, “Spirolides isolated from Danish strains of the toxigenic dinoflagellate Alexandrium ostenfeldii” (J Nat Prod, 2006)
